These results are taken from ChEMBL document CHEMBL4196075, “Structure-based optimization of a series of selective BET inhibitors containing aniline or indoline groups” (Eur J Med Chem, 2018).

As a reminder, the Tmax is the time from dosing to the highest level. As usually defined, the Cmax is the highest concentration seen after dosing. Usually AUC(0-t) stands for exposure summed from dosing to a finite time, without extrapolation to infinity. Read a low AUC(0-t) as less exposure.

Assay type in all cases: ADME, organism-based
Holding throughout (conditions): in vivo

Data set [1] is described as follows: Tmax in ICR (CD-1) mouse at […], po via gavage by mass spectrometric method.
Data set [2] in a line: Cmax in ICR (CD-1) mouse at […], po via gavage by mass spectrometric method.
Data set [3] is described as follows: AUC (0 to t) in ICR (CD-1) mouse at […], po via gavage by mass spectrometric method.
Data set [4] can be described thus: Tmax in ICR (CD-1) mouse at 20 mg/kg, po via gavage by mass spectrometric method.
A short description of data set [5]: Cmax in ICR (CD-1) mouse at 20 mg/kg, po via gavage by mass spectrometric method. Also on record: dose 20 mg/kg, route oral.
A short description of data set [6]: AUC (0 to t) in ICR (CD-1) mouse at 20 mg/kg, po via gavage by mass spectrometric method.

With `Cc1ccc2c(c1)CCN2C(=O)c1ccc2c(n1)N(C1CC1)C(C)C(=O)N2C` (centres undefined), the Tmax in data set [1] was 19.8 min. In data set [2], this compound had a Cmax of 189 ng/mL. Moreover, in data set [3], the exposure AUC(0-t) stood at 383 ng·h/mL.

`Cc1ccc2c(c1)CCN2C(=O)c1ccc2c(c1)N(C1CC1)C(C)C(=O)N2C` (centres undefined): the Tmax in data set [4] came to 15 min. In data set [5], this compound yielded a Cmax of 335 ng/mL. In addition, the area under the curve AUC(0-t) in data set [6] worked out at 189 ng·h/mL.

As for `Cc1ccc(NC(=O)c2ccc3c(c2)N(C2CC2)C(C)C(=O)N3C)c(C)c1` (centres undefined), the Tmax in data set [4] is 18 min. The compound further came in with a Cmax in data set [5] of 1780 ng/mL. This compound also registered an AUC(0-t) in data set [6] of 2660 ng·h/mL.
